In general, Kd refers to the concentration at which binding is half-saturated. A high value points to lower affinity. Broadly, the Km is the concentration of substrate that gives half-maximal velocity. What is called kcat is the maximal rate divided by the concentration of active sites. A word on the kcat/Km: it is the second-order rate constant that governs catalysis at low substrate concentration.

Series [1] deals with T1, S. typhimurium OMP synthase (orotate phosphoribosyltransferase) (Salmonella enterica, UniProt P08870).
T1 sequence (P08870 2-213): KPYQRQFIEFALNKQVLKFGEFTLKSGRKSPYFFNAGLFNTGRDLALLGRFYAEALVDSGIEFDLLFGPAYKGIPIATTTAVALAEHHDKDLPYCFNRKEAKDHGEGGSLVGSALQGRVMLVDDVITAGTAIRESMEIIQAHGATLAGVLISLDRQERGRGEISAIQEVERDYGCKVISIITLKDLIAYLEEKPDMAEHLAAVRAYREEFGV
The series can be described thus: equilibrium binding by centrifugal filtration.

The target of series [2] is S. typhimurium OMP synthase (orotate phosphoribosyltransferase) (Salmonella enterica, UniProt P08870, E101A). Kind of series: biochemical.
Series [3] deals with S. typhimurium OMP synthase (orotate phosphoribosyltransferase) (Salmonella enterica, UniProt P08870, H105A). Kind of series: biochemical.
Series [4] deals with S. typhimurium OMP synthase (orotate phosphoribosyltransferase) (Salmonella enterica, UniProt P08870, DEL102-102/DEL106-106). The series can be described thus: biochemical.
Series [5] has as its target S. typhimurium OMP synthase (orotate phosphoribosyltransferase) (Salmonella enterica, UniProt P08870, E107A). The series can be described thus: biochemical.
In series [6] the target is S. typhimurium OMP synthase (orotate phosphoribosyltransferase) (Salmonella enterica, UniProt P08870, K103A). The series can be described thus: biochemical.
In series [7] the target is S. typhimurium OMP synthase (orotate phosphoribosyltransferase) (Salmonella enterica, UniProt P08870, D104A). The series can be described thus: biochemical.
Substrate in series [8]: O=C(O)c1cc(=O)[nH]c(=O)[nH]1
The series can be described thus: purified protein. Type of series: biochemical, Salmonella enterica. The note with it: 1 mM PRPP, 6 mM MgCl2, 75 mM Tris-Cl, pH 8.0, 30°C.

Substrate in series [9]: O=P(O)(O)OC[C@H]1O[C@H](OP(=O)(O)OP(=O)(O)O)[C@H](O)[C@@H]1O
The series can be described thus: purified protein. The series is classed as biochemical, Salmonella enterica. As to conditions: 300 μM orotate, 6 mM MgCl2, 75 mM Tris-Cl, pH 8.0, 30°C.

Substrate in series [10]: O=C(O)c1cc(=O)[nH]c(=O)n1[C@@H]1O[C@H](COP(=O)(O)O)[C@@H](O)[C@H]1O
Kind of series: purified protein. The note with it: 2 mM PPi, 3 mM MgCl2, 80 mM Tris-Cl, pH 8.0, 30°C.

Substrate in series [11]: O=P(O)(O)OP(=O)(O)O
Kind of series: purified protein. The note with it: 100 μM OMP, 3 mM MgCl2, 80 mM Tris-Cl, pH 8.0, 30°C.

Regarding `O=C(O)c1cc(=O)[nH]c(=O)n1[C@@H]1O[C@H](COP(=O)(O)O)[C@@H](O)[C@H]1O` [OMP], the Kd in series [1] worked out at 3.1 ± 0.1 µM; in [2], 12 ± 2 µM; in series [3], 4 ± 0.3 µM; in [4], 2 ± 0.1 µM; in series [5], 6.5 ± 0.8 µM; in [6] it was 3 ± 0.1 µM.

Molecule `O=C(O)c1cc(=O)[nH]c(=O)[nH]1` [Orotate] registered a dissociation constant (Kd) in series [1] of 280 ± 30 µM.

Consider `O=P(O)(O)OC[C@H]1O[C@H](OP(=O)(O)OP(=O)(O)O)[C@H](O)[C@@H]1O` [PRPP], for which the Kd in series [1] was 33 ± 0.5 µM; in series [7], 13 ± 0.7 µM; in series [2] it was 36 ± 3 µM; in [3], 92 ± 11 µM; in series [5], 7.1 ± 0.5 µM; in series [6], 125 ± 11 µM.

B1: S. typhimurium OMP synthase (orotate phosphoribosyltransferase) (Salmonella enterica subsp. enterica serovar Typhimurium str. LT2) (protein)
chain: T1 sequence (P08870 2-213)
As for B1, the Km in [8] turned out to be 19 ± 3 µM; in series [9], 18 ± 5 µM; in [10], 3 ± 0.3 µM; in series [11] it was 31 ± 3 µM. In addition, the kcat amounted to 56 ± 2.5 s⁻¹ in [8], 56 ± 2.5 s⁻¹ in [9] and 18 ± 0.3 s⁻¹ in series [11]. In addition, the kcat/Km in [8] turned out to be 3e+06 M⁻¹ s⁻¹; in series [9], 3.1e+06 M⁻¹ s⁻¹; in series [11], 580000 M⁻¹ s⁻¹.
